Laboratory results taken from ChEMBL document CHEMBL2321745, “Synthesis and biological evaluation of substituted benzoxazoles as inhibitors of mPGES-1: use of a conformation-based hypothesis to facilitate compound design” (Bioorg Med Chem Lett, 2013).

Legend:
[1] = Oral bioavailability in Sprague-Dawley rat at 1 mg/kg; assay type: ADME, organism-based; conditions: in vivo
[2] = Volume of distribution at steady state in Sprague-Dawley rat at 1 mg/kg, iv; assay type: ADME, organism-based; set-up: dose 1 mg/kg, route intravenous; conditions: in vivo, read-out: Vdss
[3] = Mean residence time in Sprague-Dawley rat at 1 mg/kg, po; assay type: ADME, organism-based; set-up: dose 1 mg/kg, route oral; conditions: in vivo
[4] = Clearance in Sprague-Dawley rat at 1 mg/kg, iv; assay type: ADME, organism-based; set-up: dose 1 mg/kg, route intravenous; conditions: in vivo
[5] = Apparent intrinsic clearance in human liver microsomes; assay type: ADME, Microsome; conditions: read-out: CLH(app)
[6] = Half life in Sprague-Dawley rat at 1 mg/kg, po; assay type: ADME, organism-based; set-up: dose 1 mg/kg, route oral; conditions: in vivo
[7] = AUC (infinity) in Sprague-Dawley rat at 1 mg/kg, po; assay type: ADME, organism-based; set-up: time infinity, dose 1 mg/kg, route oral; conditions: plasma
[8] = Cmax in Sprague-Dawley rat at 1 mg/kg, po; assay type: ADME, organism-based; set-up: dose 1 mg/kg, route oral; conditions: in vivo

bioavailability [1] | Vd [2] | MRT [3] | clearance [4] | CLint scaled [5] | half-life [6] | AUC(0-inf) [7] | Cmax [8] | SMILES
15% | 2 L/kg | 0.78 h | 44 mL/min/kg | 223 mL/min/kg | 0.54 h | – | – | Cc1cc2oc(N3CCC(C(=O)N[C@H]4CCC[C@H](C(C)(C)O)C4)CC3)nc2cc1Cl
38% | 4.6 L/kg | 3.6 h | 30 mL/min/kg | 98 mL/min/kg | 5.4 h | 0.45 µM·h | 120 nM | CC(C)(O)[C@H]1CCC[C@H](NC(=O)C2CCN(c3nc4cc(Cl)c(C(F)(F)F)cc4o3)CC2)C1
30% | 2.1 L/kg | 6.5 h | 9.4 mL/min/kg | 4.6 mL/min/kg | 17 h | 1.1 µM·h | 150 nM | CS(=O)(=O)[C@H]1CCC[C@H](NC(=O)C2CCN(c3nc4cc(Cl)c(C(F)(F)F)cc4o3)CC2)C1
42% | 2.9 L/kg | 6.8 h | – | – | – | 1.9 µM·h | 200 nM | O=C(N[C@H]1CCC[C@H](CO)C1)C1CCN(c2nc3cc(Cl)c(-c4ccc(Cl)cc4)cc3o2)CC1
